Experiments:
RXF393 = assay: NCI 60 screen, RXF393; format: cell-based; conditions: Homo sapiens, RXF 393, Renal
Description: (§1) The compounds synthesized were tested at the National Cancer Institute (NCI) for anti-proliferative activity in the 60 human tumor cell line assay.

A549/ATCC = assay: NCI 60 screen, A549/ATCC; format: cell-based; conditions: Homo sapiens, Non-Small Cell Lung
Description: as §1

MOLT-4 = assay: NCI 60 screen, MOLT-4; format: cell-based; conditions: Homo sapiens, Leukemia
Description: as §1

SNB-75 = assay: NCI 60 screen, SNB-75; format: cell-based; conditions: Homo sapiens, CNS
Description: as §1

UACC-257 = assay: NCI 60 screen, UACC-257; format: cell-based; conditions: Homo sapiens, Melanoma
Description: as §1

MDA-MB-435 = assay: NCI 60 screen, MDA-MB-435; format: cell-based; conditions: Homo sapiens, Melanoma
Description: as §1

MALME-3M = assay: NCI 60 screen, MALME-3M; format: cell-based; conditions: Homo sapiens, Melanoma
Description: as §1

NCI-H226 = assay: NCI 60 screen, NCI-H226; format: cell-based; conditions: Homo sapiens, Non-Small Cell Lung
Description: as §1

TK-10 = assay: NCI 60 screen, TK-10; format: cell-based; conditions: Homo sapiens, Renal
Description: as §1

HCC-2998 = assay: NCI 60 screen, HCC-2998; format: cell-based; conditions: Homo sapiens, Colon
Description: as §1

MDA-MB-231/ATCC = assay: NCI 60 screen, MDA-MB-231/ATCC; format: cell-based; conditions: Homo sapiens, Breast
Description: as §1

SN12C = assay: NCI 60 screen, SN12C; format: cell-based; conditions: Homo sapiens, Renal
Description: as §1

SF-539 = assay: NCI 60 screen, SF-539; format: cell-based; conditions: Homo sapiens, CNS
Description: as §1

HOP-92 = assay: NCI 60 screen, HOP-92; format: cell-based; conditions: Homo sapiens, Non-Small Cell Lung
Description: as §1

SF-295 = assay: NCI 60 screen, SF-295; format: cell-based; conditions: Homo sapiens, CNS
Description: as §1

PC-3 = assay: NCI 60 screen, PC-3; format: cell-based; conditions: Homo sapiens, Prostatic
Description: as §1

BT-549 = assay: NCI 60 screen, BT-549; format: cell-based; conditions: Homo sapiens, Breast
Description: as §1

COLO 205 = assay: NCI 60 screen, COLO 205; format: cell-based; conditions: Homo sapiens, Colon
Description: as §1

HL-60(TB) = assay: NCI 60 screen, HL-60(TB); format: cell-based; conditions: Homo sapiens, Leukemia
Description: as §1

U251 = assay: NCI 60 screen, U251; format: cell-based; conditions: Homo sapiens, U-251, CNS
Description: as §1

IGROV1 = assay: NCI 60 screen, IGROV1; format: cell-based; conditions: Homo sapiens, IGROV-1, Ovarian
Description: as §1

KM12 = assay: NCI 60 screen, KM12; format: cell-based; conditions: Homo sapiens, Colon
Description: as §1

SK-MEL-2 [1] = assay: NCI 60 screen, SK-MEL-2 (second line); format: cell-based; conditions: Homo sapiens; Melanoma, SK-MEL-2 (second of two lines so named, r38)
Description: as §1

UACC-62 = assay: NCI 60 screen, UACC-62; format: cell-based; conditions: Homo sapiens, Melanoma
Description: as §1

OVCAR-4 = assay: NCI 60 screen, OVCAR-4; format: cell-based; conditions: Homo sapiens, Ovarian
Description: as §1

HCT15 = assay: NCI 60 screen, HCT15; format: cell-based; conditions: Homo sapiens, HCT-15, Colon
Description: as §1

SK-MEL-2 [2] = assay: NCI 60 screen, SK-MEL-2 (first line); format: cell-based; conditions: Homo sapiens; Melanoma, SK-MEL-2 (first of two lines so named, r37)
Description: as §1

SR = assay: NCI 60 screen, SR; format: cell-based; conditions: Homo sapiens, Leukemia
Description: as §1

786-0 = assay: NCI 60 screen, 786-0; format: cell-based; conditions: Homo sapiens, Renal
Description: as §1

SF-268 = assay: NCI 60 screen, SF-268; format: cell-based; conditions: Homo sapiens, CNS
Description: as §1

EKVX = assay: NCI 60 screen, EKVX; format: cell-based; conditions: Homo sapiens, Non-Small Cell Lung
Description: as §1

K-562 = assay: NCI 60 screen, K-562; format: cell-based; conditions: Homo sapiens, K562, Leukemia
Description: as §1

OVCAR-8 = assay: NCI 60 screen, OVCAR-8; format: cell-based; conditions: Homo sapiens, Ovarian
Description: as §1

LOX IMVI = assay: NCI 60 screen, LOX IMVI; format: cell-based; conditions: Homo sapiens, Melanoma
Description: as §1

CCRF-CEM = assay: NCI 60 screen, CCRF-CEM; format: cell-based; conditions: Homo sapiens, Leukemia
Description: as §1

HS 578T = assay: NCI 60 screen, HS 578T; format: cell-based; conditions: Homo sapiens, Breast
Description: as §1

DU-145 = assay: NCI 60 screen, DU-145; format: cell-based; conditions: Homo sapiens, Prostatic
Description: as §1

OVCAR-3 = assay: NCI 60 screen, OVCAR-3; format: cell-based; conditions: Homo sapiens, Ovarian
Description: as §1

SK-OV-3 = assay: NCI 60 screen, SK-OV-3; format: cell-based; conditions: Homo sapiens, Ovarian
Description: as §1

NCI-H522 = assay: NCI 60 screen, NCI-H522; format: cell-based; conditions: Homo sapiens, Non-Small Cell Lung
Description: as §1

NCI-H23 = assay: NCI 60 screen, NCI-H23; format: cell-based; conditions: Homo sapiens, Non-Small Cell Lung
Description: as §1

CAKI-1 = assay: NCI 60 screen, CAKI-1; format: cell-based; conditions: Homo sapiens, Renal
Description: as §1

NCI-460 = assay: NCI 60 screen, NCI-460; format: cell-based; conditions: Homo sapiens, Non-Small Cell Lung
Description: as §1

MCF7 = assay: NCI 60 screen, MCF7; format: cell-based; conditions: Homo sapiens, Breast
Description: as §1

HOP-62 = assay: NCI 60 screen, HOP-62; format: cell-based; conditions: Homo sapiens, Non-Small Cell Lung
Description: as §1

UO-31 = assay: NCI 60 screen, UO-31; format: cell-based; conditions: Homo sapiens, Renal
Description: as §1

NCI/ADR-RES = assay: NCI 60 screen, NCI/ADR-RES; format: cell-based; conditions: Homo sapiens, Ovarian
Description: as §1

M14 = assay: NCI 60 screen, M14; format: cell-based; conditions: Homo sapiens, Melanoma
Description: as §1

SK-MEL-5 = assay: NCI 60 screen, SK-MEL-5; format: cell-based; conditions: Homo sapiens, Melanoma
Description: as §1

NCI-322M = assay: NCI 60 screen, NCI-322M; format: cell-based; conditions: Homo sapiens, Non-Small Cell Lung
Description: as §1

OVCAR-5 = assay: NCI 60 screen, OVCAR-5; format: cell-based; conditions: Homo sapiens, Ovarian
Description: as §1

HCT-116 = assay: NCI 60 screen, HCT-116; format: cell-based; conditions: Homo sapiens, Colon
Description: as §1

SNB-19 = assay: NCI 60 screen, SNB-19; format: cell-based; conditions: Homo sapiens, CNS
Description: as §1

MDA-MB-468 = assay: NCI 60 screen, MDA-MB-468; format: cell-based; conditions: Homo sapiens, Breast
Description: as §1

A498 = assay: NCI 60 screen, A498; format: cell-based; conditions: Homo sapiens, Renal
Description: as §1

ACHN = assay: NCI 60 screen, ACHN; format: cell-based; conditions: Homo sapiens, Renal
Description: as §1

T-47D = assay: NCI 60 screen, T-47D; format: cell-based; conditions: Homo sapiens, T47D, Breast
Description: as §1

SW-620 = assay: NCI 60 screen, SW-620; format: cell-based; conditions: Homo sapiens, Colon
Description: as §1

HT29 = assay: NCI 60 screen, HT29; format: cell-based; conditions: Homo sapiens, HT-29, Colon
Description: as §1

RPMI-8226 = assay: NCI 60 screen, RPMI-8226; format: cell-based; conditions: Homo sapiens, Leukemia
Description: as §1

[3] = system: chromosome alignment, centromeres, and spindle body; assay: Fluorescence microscopy of chromosome alignment, centromeres and spindle body; format: cell-based; conditions: cells treated for several hours, FIGS. 8A-8B
Description: FIGS. 8A-8B: Color images showing effects of compound 25 on chromosome alignment, centromeres, and spindle body. Microtubules that make up the mitotic spindle are detected with an antibody linked to a green fluorophore, which was detected with a fluorescence microscope. Centromeres were detected with a far red fluorophore (they are pseudocolored pink). DNA was detected with Hoechst DNA stain, which is blue.
In normal cells (FIG. 8A, upper two panels), chromosomes line up between the spindle poles at metaphase. In cells treated with compound 25 for several hours (FIG. 8A, lower two panels), cells still enter mitosis but centromeres are found all over the cell (not just in the middle between the poles of the spindle). […] However, when ZM is combined with compound 25, what was observed was a very dramatic disruption of spindle architecture. […] Without wishing to be bound by theory, it is believed that both Aurora B and the targets of compound 25 work in parallel to control tubulin function. When either one is inhibited alone, there is no effect since the other pathway compensates. When both are inhibited, the defect is detected.

CCn1ccnc1C(=O)/C=C/c1ccc(CC(=O)Nc2ccc(F)cc2)cc1 [Compound 31, (E)-2-(4-(3-(1-ethyl-1H-imidazol-2-yl)-3-oxoprop-1-en-1-yl)phenyl)-N-(4-fluorophenyl)acetamide]
GI50 (RXF393): 3.39 µM
GI50 (A549/ATCC): 4.16 µM
GI50 (MOLT-4): 5.28 µM
GI50 (SNB-75): 2.81 µM
GI50 (UACC-257): 14 µM
GI50 (MDA-MB-435): 4.58 µM
GI50 (MALME-3M): 16.7 µM
GI50 (NCI-H226): 3.61 µM
GI50 (TK-10): 6.01 µM
GI50 (HCC-2998): 5.1 µM
GI50 (MDA-MB-231/ATCC): 3.36 µM
GI50 (SN12C): 3.71 µM
GI50 (SF-539): 2.93 µM
GI50 (HOP-92): 3.32 µM
GI50 (SF-295): 4.41 µM
GI50 (PC-3): 7.06 µM
GI50 (BT-549): 2.94 µM
GI50 (COLO 205): 4.29 µM
GI50 (HL-60(TB)): 3.18 µM
GI50 (U251): 1.88 µM
GI50 (IGROV1): 4.63 µM
GI50 (KM12): 3.06 µM
GI50 (SK-MEL-2 [1]): 4.92 µM
GI50 (UACC-62): 2.83 µM
GI50 (OVCAR-4): 3.31 µM
GI50 (HCT15): 1.93 µM
GI50 (SK-MEL-2 [2]): 6.26 µM
melting point: 219 to 220 °C
GI50 (SR): 0.53 µM
GI50 (786-0): 4.36 µM
GI50 (SF-268): 3.81 µM
GI50 (EKVX): 3.59 µM
GI50 (K-562): 2.06 µM
GI50 (OVCAR-8): 4.86 µM
GI50 (LOX IMVI): 0.56 µM
GI50 (CCRF-CEM): 4.34 µM
GI50 (HS 578T): 5.36 µM
GI50 (DU-145): 4.45 µM
GI50 (OVCAR-3): 3.92 µM
GI50 (SK-OV-3): 6.97 µM
GI50 (NCI-H522): 3.92 µM
GI50 (NCI-H23): 4.25 µM
GI50 (CAKI-1): 5.08 µM
GI50 (NCI-460): 2.64 µM
GI50 (MCF7): 2.52 µM
GI50 (HOP-62): 3.92 µM
GI50 (UO-31): 2.65 µM
GI50 (NCI/ADR-RES): 5.37 µM
GI50 (M14): 3.02 µM
GI50 (SK-MEL-5): 5.74 µM
GI50 (NCI-322M): 3.49 µM
GI50 (OVCAR-5): 4.97 µM
GI50 (HCT-116): 1.84 µM
GI50 (SNB-19): 3.58 µM
GI50 (MDA-MB-468): 1.99 µM
GI50 (A498): 3.73 µM
GI50 (ACHN): 3.95 µM
GI50 (T-47D): 3.8 µM
GI50 (SW-620): 4.29 µM
GI50 (HT29): 5.64 µM
GI50 (RPMI-8226): 2.28 µM

COc1cc2c(Nc3ccc(NC(=O)c4ccccc4)cc3)ncnc2cc1OCCCN1CCOCC1 [ZM447439, reference compound]
Chromosome alignment / centromere position [3]: Many misaligned chromosomes
